“And” between values parts separate entries of the source, which are not always exact repeats. Identical values can stand only once. Like-named read-outs stand apart in the source and are kept apart here. Marks after values point to notes of the source that are not given here.

One data set relates to AA8. Description: Cell inhibition of different species, normoxic, AA8. It counts as cell-based, Rat. The following applies: IC50 AA8/H460. An excerpt:
To further compare the cytotoxicity of TH-302 with that of compound A, the following further provide test results for H460 cell line and cells from different species at different test times in the same laboratory, with the same operator and under the same experimental conditions.

The next data set can be described thus: Plasma stability, monkey. The class given is in vitro ADME. On the procedure: (§1) The pH of the plasma was checked and recorded. Note: a.
(§2) The final concentration of solvent was 0.5%.
(§3) The assay is performed in duplicate.

The nature of a further data set: Plasma stability, dog. The following applies: for Remaining percentage: after 30 minutes. On the procedure: The frozen plasma was immediately melted in a water bath of 37° C. The plasma was centrifuged at 3, 220 g for 10 minutes to remove the blood clots and the supernatant was collected into a new test tube. The pH of the plasma was checked and recorded. Note: a. Only plasma that has been melted no more than twice since arrival was used; b. Only plasma in the range of pH 7 to pH 8 was used.
1 mM of working solutions of the test compound and the control compound mevinolin were prepared in DMSO. 1 mM of the working solution of the control compound solution in […] was prepared in acetonitrile. 4 μL of the working solution was added to 796 μL of pre-incubated plasma to achieve 5 μM of final concentration. The final concentration of solvent was 0.5%.
The aliquots of 50 μL of the standard addition plasma were added to new test tubes and incubated in the water bath of 37° C. at approximately 60 rpm for 2 hours. The assay is performed in duplicate. At the end of the two hour incubation, 300 μL of quenched solution at room temperature (acetonitrile containing internal standards (acetonitrile, 100 nM Alprazolam, 500 nM Labetalol and 2 μM ketoprofen)) was added to terminate the reaction. Samples at time 0 were prepared by adding 50 μL of standard addition plasma to the new test tubes with 300 μL of quenched solution at room temperature. The test tubes were mixed by vortex for 5 minutes. The samples in the plates were centrifuged at 3, 220×g for 30 minutes at 4° C. to precipitate the proteins. 100 μL of supernatant was transferred to a new plate. The supernatant was diluted with 100 μL of water, mixed well and analysed using LC-MS/MS.

Another data set is described as follows: Plasma stability, human. The class given is in vitro ADME. The following applies: for Remaining percentage: after 30 minutes, 5 μM, 37° C.; for plasma stability: human plasma. As for the experimental part:
as §1, §2, §3

In data set [1] the test system is DLD-1 BRCA2 KO (BRCA2 deletion) cells. In words: Clonogenic assay, DLD-1 BRCA2 KO. It counts as cell-based. The following applies: for IC90: Homo sapiens, 3 h. On the procedure: (§4) The following PSN-1 cells, PANC1 cells, MiaPaCa-2 cells, H460 cells, DLD-1 WT (wild type) cells, DLD-1 BRCA2 KO (BRCA2 deletion) cells were seeded in 10 cm vitreous cell culture plates at specific cell numbers and incubated for 2 days at 37° C. and under the conditions of 5% CO2, 95% air and 100% relative humidity. On day 3, test compounds TH302 or AST-002-P2 at the specific concentrations were added to the cells, and incubated for 3 hours together with the cells under normoxic (21% O2) and hypoxic conditions (<0.01% O2), respectively. After cells were stimulated by compounds, the cells were washed once with 1×PBS and digested into single cells with pancreatic enzymes for cell counting. The above cells in specific cell numbers were reseeded in a new culture plate and cultured for 7 days to perform single cell colony formation. When single cells in compound culture plates stimulated under normoxic conditions proliferated to about 50 cells, the cultures were removed and stained with 0.5% crystal violet for 40 minutes. After staining, cells were counted for colonies using Colony Counter (VWR) and the IC90 was calculated.

Data set [2] relates to human lung cancer NCI-H460 subcutaneous xenograft. In words: Human lung cancer NCI-H460 subcutaneous xenograft model, compounds B and C. The class given is in vivo, BALB/c nude mice. As to conditions: for relative tumor inhibition rate TGI (%): QD×5 per cycle, 2 cycles, Day 28. On the procedure: BALB/c nude mice were subcutaneously inoculated with human lung cancer NCI-H460 cells to establish human lung cancer subcutaneous transplantation tumor model. […] The positive drug Irinotecan 40 mg/kg group was administered by intraperitoneal injection once every 4 days for 7 times, and observed for 4 days.
For orientation: A xenograft is tissue or cells of one species grown in another, often human tumour cells in immunodeficient mice.

The next data set concerns H460 cells. Description: Clonogenic assay, H460. It counts as cell-based, human. The following applies: for IC90: Homo sapiens, NCI-H460, 3 h; for HCR: IC90 ratio normoxic/N2. On the procedure: as §4
Another data set deals with PSN-1 cells. Description: Clonogenic assay, PSN-1. As to conditions: for IC90: Homo sapiens, PSN1, 3 h; for HCR: IC90 ratio normoxic/N2. It counts as cell-based, human. On the procedure:
as §4

The subject of data set [3] is DLD-1 WT (wild type) cells. Description: Clonogenic assay, DLD-1 WT. It counts as cell-based. As to conditions: for IC90: Homo sapiens, 3 h. As for the experimental part:
as §4

A short description of data set [4]: Blood-brain barrier experiment, brain and plasma concentrations after IV dosing. It counts as in vivo, CD-1 mice. The following applies: CD-1, mouse; for Kp at 0.25 h / Kp at 2 h: brain/plasma, iv, 1 mg/kg; for Kp at 0.25 h: read-out: Mean Ratio (Brain/Plasma); for Kp at 2 h: single animals, read-out: Ratio (Brain/Plasma); for Cmax / Tmax: brain tissue; for Cmax / Tmax / AUC: IV 1 mg/kg; for AUC: plasma.

[5] abbreviates: 21% O2, read-out: IC90 Normoxia.
The mark [6] stands for this setting: <0.01% O2, read-out: IC90 Hypoxia.

Regarding `O=[N+]([O-])c1ccc(C(OP(=O)(N2CC2)N2CC2)C(F)(F)F)c2ccccc12` (racemic) [Compound A], in the data set with AA8 (exposure 3 days), the “Multiplier: Rat/Human” value worked out at 110. For the same compound, the “Remaining percentage (%)” value was 97.9 ± 3.72% in “Plasma stability, monkey” (Monkey plasma, 15 min); 103 ± 4.19% in “Plasma stability, monkey” (Monkey plasma, 60 min); 92.3 ± 2.15% in “Plasma stability, monkey” (Monkey plasma, 90 min); 87.4% and 87.4 ± 1.59% in “Plasma stability, monkey” (Monkey plasma, 120 min); 100% in “Plasma stability, monkey” (Monkey plasma, 2 h time course, 0 min); 107 ± 2.78% in “Plasma stability, monkey” (Monkey plasma, time course, 30 min). Besides, the “Remaining percentage (%)” value in the data set “Plasma stability, dog” (Dog plasma, 15 min) is 107 ± 2.54%; in “Plasma stability, dog” (Dog plasma, 60 min), 101 ± 5.20%; in “Plasma stability, dog” (Dog plasma, 90 min), 105 ± 3.67%; in “Plasma stability, dog” (Dog plasma, 120 min), 98.9% and 98.9 ± 0.476%; in the data set “Plasma stability, dog” (Dog plasma, 2 h time course, 0 min), 100%; in “Plasma stability, dog” (Dog plasma, time course, 30 min), 105 ± 1.27%. In addition, the “Remaining percentage (%)” value in the data set “Plasma stability, human” (Human plasma, 15 min) was 108 ± 0.773%; in “Plasma stability, human” (Human plasma, 60 min) it was 99.2 ± 3.39%; in the data set “Plasma stability, human” (Human plasma, 90 min), 93.8 ± 3.12%; in “Plasma stability, human” (Human plasma, 120 min) it was 89.7% and 89.7 ± 4.43%; in the data set “Plasma stability, human” (Human plasma, 2 h time course, 0 min) it was 100%; in “Plasma stability, human” (Human plasma, time course, 30 min) it was 102 ± 3.85%. Also, the t½ in “Plasma stability, monkey” (Monkey plasma, in vitro) is given as >373* min; in “Plasma stability, dog” (Dog plasma, in vitro) it was >373* min; in the data set “Plasma stability, human” (Human plasma, in vitro), >373* min. In addition, the half-life at 5 µM in “Plasma stability, monkey” (Monkey plasma, in vitro, read-out: t½) is above 373 min; in “Plasma stability, dog” (dog plasma), above 373 min; in “Plasma stability, human” (Human plasma, in vitro, read-out: t½) it was above 373 min. For the same compound, the “plasma stability” value in “Plasma stability, monkey” (monkey plasma) is “stable”; in the data set “Plasma stability, dog” (dog plasma), “stable”; in the data set “Plasma stability, human”, “stable”. The Remaining percentage in “Plasma stability, dog” (Dog plasma) is 85.04%; in “Plasma stability, human” (Human plasma), 68.68%.

As a reminder, the IC90 is the point of the concentration-response curve where the effect stands at 90%. A word on the Cmax: it is the peak of the concentration-time curve. What is called Tmax is the time at which the peak concentration occurs. Usually AUC stands for the area under the concentration-time curve, a measure of exposure. On to `O=[N+]([O-])c1ccc([C@@H](OP(=O)(N2CC2)N2CC2)C(F)(F)F)c2ccccc12` (single isomer, unassigned) [Compound C], for which the IC90 in [1] (setting [5]) is above 10000 nM; in data set [1] (setting [6]), 112 nM; in the data set on H460 cells (setting [5]) it was 66 nM; in the data set with H460 cells (setting [6]), 41 nM; in the data set with PSN-1 cells (setting [5]), above 1000 nM; in the data set with PSN-1 cells (setting [6]) it was 286 nM. In addition, the IC90 in [3] (setting [5]) and in data set [3] (setting [6]) was above 140 nM each time. Further, the HCR is on record as above 89 in data set [1] (IC90 ratio normoxic/N2); above 89 in [1] (IC90 ratio normoxic/N2, listed as compound C); 1.6 in the data set with H460 cells; above 3.5 in the data set with PSN-1 cells. The figures for the “relative tumor inhibition rate TGI (%)” value in [2] (20 mg/kg i.p.) and in data set [2] (40 mg/kg i.p.) were 90.56% and 94.33%, respectively. Moreover, the “complete cure rate on tumors” value in data set [2] (group 6, 20 mg/kg, Day35) stood at 20%. Besides, in data set [4], the Kp at 0.25 h was determined as 0.86. In addition, in data set [4], the Kp at 2 h is 1.35. This compound also displayed a Cmax in data set [4] of 445 ng/g. Besides, the Tmax in [4] was 4.8 min. Further, in data set [4], the AUC came out at 190 ng·h/mL.

Turning to `O=[N+]([O-])c1ccc([C@H](OP(=O)(N2CC2)N2CC2)C(F)(F)F)c2ccccc12` [Compound B], in [2] (20 mg/kg i.p.), the “relative tumor inhibition rate TGI (%)” value is reported as 88.51%. Also, in data set [4], the Kp at 0.25 h was determined as 1.59, the Kp at 2 h amounted to 1.38, the Cmax amounted to 983 ng/g and the time to peak (Tmax) stood at 4.8 min. In data set [4], this compound showed an area under the curve (AUC) of 289 ng·h/mL.

For `CC(OP(=O)(N1CC1)N1CC1)c1ccc([N+](=O)[O-])c2ccccc12` (centres unmarked) [Compound D], the Remaining percentage in the data set “Plasma stability, monkey” (Monkey plasma, after 30 minutes) was found to be 87.66%; in the data set “Plasma stability, dog” (Dog plasma), 91.95%; in the data set “Plasma stability, human” (Human plasma), 97.06%. Further, the “plasma stability” value in the data set “Plasma stability, dog” (dog plasma) is “relatively stable”; in “Plasma stability, human”, “secondarily”.

With `Cn1c(COP(=O)(NCCBr)NCCBr)cnc1[N+](=O)[O-]` [TH-302, Evofosfamide], the “Multiplier: Rat/Human” value in the data set with AA8 (exposure 2 h) came to 41.5. In addition, the IC90 in [1] (setting [5]) was found to be 21900 nM; in data set [1] (setting [6]), 3.01 nM; with H460 cells (setting [5]), 15600 nM; in the data set with H460 cells (setting [6]) it was 21 nM; in the data set with PSN-1 cells (setting [5]) it was 30500 nM; in the data set with PSN-1 cells (setting [6]) it was 164 nM. Also, the IC90 in [3] (setting [5]) turned out to be 26200 nM; in [3] (setting [6]) it was 210 nM. Also, the HCR in [1] (IC90 ratio normoxic/N2) turned out to be 7277; in the data set on H460 cells, 741; with PSN-1 cells it was 186; in data set [3] (IC90 ratio normoxic/N2) it was 125.

The values are drawn from patent US20230339991A1, “HYPOXIA-ACTIVATED DNA ALKYLATING AGENT AND MEDICAL USE THEREOF” (ASCENTAWITS PHARMACEUTICALS, LTD., priority 2020, published 2023).
